Assay results reported in US20250376461A1, “INDAZOLE DERIVATIVES FOR TREATING TRPM3-MEDIATED DISORDERS” (Katholieke Universiteit Leuven, priority 2022, published 2025).

Molecular target: T1, mouse TRPM3α2 (mTRPM3) ion channel (Mus musculus, UniProt J9SQF3)
T1 construct: expressed in transfected cells; host or cells: flip-in HEK293
Experiment: TRPM3 ion channel driven Ca2+ uptake, Fluo-4 AM assay, mTRPM3alpha2 overexpressing flip-in HEK293 cells stimulated with pregnenolone sulfate (50 μM)
Format: cell-based
Details: mTRPM3 overexpressing HEK293 cells stimulated with pregnenolone sulfate (50 μM), activity ranges A, B, C
Procedure, shortened: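 Flip-in HEK293 cells overexpressing mTRPM3α2, loaded with Fluo-4 AM, added at ±2000 cells/well to plates holding compound plus 50 μM pregnenolone sulfate in Ca2+-containing Krebs buffer. Fluorescence (ex 485/em 535 nm) read immediately. Percent inhibition normalised between vehicle and positive-control inhibitor; IC50 derived.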

T1 sequence (J9SQF3 1-1709 isoform J9SQF3-12): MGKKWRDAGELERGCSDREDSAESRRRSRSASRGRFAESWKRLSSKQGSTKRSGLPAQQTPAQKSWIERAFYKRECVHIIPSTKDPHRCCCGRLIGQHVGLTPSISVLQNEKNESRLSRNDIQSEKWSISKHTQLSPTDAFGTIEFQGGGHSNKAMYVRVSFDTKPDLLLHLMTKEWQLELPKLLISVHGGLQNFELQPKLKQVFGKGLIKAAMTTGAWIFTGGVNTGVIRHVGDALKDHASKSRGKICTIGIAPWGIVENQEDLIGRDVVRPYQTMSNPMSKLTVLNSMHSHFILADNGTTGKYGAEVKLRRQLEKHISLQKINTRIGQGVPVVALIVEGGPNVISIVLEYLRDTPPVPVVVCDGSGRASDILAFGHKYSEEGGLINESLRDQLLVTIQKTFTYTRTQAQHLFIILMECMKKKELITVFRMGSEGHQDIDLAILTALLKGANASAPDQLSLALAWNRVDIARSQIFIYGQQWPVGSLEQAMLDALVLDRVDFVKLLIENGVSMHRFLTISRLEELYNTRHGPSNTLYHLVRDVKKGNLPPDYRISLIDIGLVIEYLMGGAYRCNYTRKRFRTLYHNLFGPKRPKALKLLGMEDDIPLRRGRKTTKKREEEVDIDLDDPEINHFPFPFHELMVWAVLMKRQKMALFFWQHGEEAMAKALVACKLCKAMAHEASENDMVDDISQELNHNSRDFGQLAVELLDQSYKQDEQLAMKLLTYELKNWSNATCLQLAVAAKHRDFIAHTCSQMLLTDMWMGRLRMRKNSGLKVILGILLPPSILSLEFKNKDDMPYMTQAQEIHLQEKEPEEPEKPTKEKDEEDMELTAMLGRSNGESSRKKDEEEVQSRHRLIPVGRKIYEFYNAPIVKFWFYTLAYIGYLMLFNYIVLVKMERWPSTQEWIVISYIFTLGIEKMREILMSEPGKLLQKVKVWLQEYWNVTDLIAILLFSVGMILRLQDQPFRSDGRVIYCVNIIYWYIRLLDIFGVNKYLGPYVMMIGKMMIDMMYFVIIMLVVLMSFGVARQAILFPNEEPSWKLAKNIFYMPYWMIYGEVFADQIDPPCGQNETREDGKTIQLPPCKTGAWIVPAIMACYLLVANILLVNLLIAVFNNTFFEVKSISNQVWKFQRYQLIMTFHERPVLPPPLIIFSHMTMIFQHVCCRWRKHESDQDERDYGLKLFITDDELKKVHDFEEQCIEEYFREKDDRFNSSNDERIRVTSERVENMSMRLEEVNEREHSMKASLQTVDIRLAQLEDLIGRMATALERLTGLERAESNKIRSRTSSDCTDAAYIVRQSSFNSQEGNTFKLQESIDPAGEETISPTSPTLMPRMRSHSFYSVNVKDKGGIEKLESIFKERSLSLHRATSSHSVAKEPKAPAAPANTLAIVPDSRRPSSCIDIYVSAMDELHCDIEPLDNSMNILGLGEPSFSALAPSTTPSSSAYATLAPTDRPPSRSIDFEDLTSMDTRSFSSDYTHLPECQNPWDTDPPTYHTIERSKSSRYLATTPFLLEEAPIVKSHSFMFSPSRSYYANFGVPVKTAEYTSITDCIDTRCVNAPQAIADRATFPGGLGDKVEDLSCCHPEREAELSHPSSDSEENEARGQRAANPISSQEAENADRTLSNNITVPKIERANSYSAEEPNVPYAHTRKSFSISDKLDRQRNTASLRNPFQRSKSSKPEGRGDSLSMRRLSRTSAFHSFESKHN

IC50 [µM]	SMILES
> 20	Cn1nccc1COc1ccc2nn(C)c(C(=O)NC3CCNC3=O)c2c1 (centres unmarked) [Cpd 062, 2-methyl-5-[(1-methyl-1H-pyrazol-5-yl)methoxy]-N-(2-oxopyrrolidin-3-yl)-2H-indazole-3-carboxamide]
1 to 20	Cc1ncsc1COc1ccc2nn(C)c(C(=O)NCC3CCC(=O)N3)c2c1 (centres unmarked) [Cpd 063, 2-methyl-5-[(4-methyl-1,3-thiazol-5-yl)methoxy]-N-[(5-oxopyrrolidin-2-yl)methyl]-2H-indazole-3-carboxamide]
1 to 20	Cc1ncsc1COc1ccc2nn(C)c(C(=O)NC3CCNC3=O)c2c1 (centres unmarked) [Cpd 064, 2-methyl-5-[(4-methyl-1,3-thiazol-5-yl)methoxy]-N-(2-oxopyrrolidin-3-yl)-2H-indazole-3-carboxamide]
1 to 20	Cn1nc2ccc(OCc3cccnc3C(F)(F)F)cc2c1C(=O)NC1(CCO)CCC1 [Cpd 065, N-[1-(2-hydroxyethyl)cyclobutyl]-2-methyl-5-{[2-(trifluoromethyl)pyridin-3-yl]methoxy}-2H-indazole-3-carboxamide]
> 20	Cn1nc2ccc(OCc3ccccc3)cc2c1C(=O)NCC1CCC(=O)N1 (centres unmarked) [Cpd 066, 5-(benzyloxy)-2-methyl-N-[(5-oxopyrrolidin-2-yl)methyl]-2H-indazole-3-carboxamide]
> 20	Cn1nccc1COc1ccc2nn(C)c(C(=O)NC3(CO)CC3)c2c1 [Cpd 067, N-[1-(hydroxymethyl)cyclopropyl]-2-methyl-5-[(1-methyl-1H-pyrazol-5-yl)methoxy]-2H-indazole-3-carboxamide]
1 to 20	Cn1nc2ccc(OCc3cccnc3C(F)(F)F)cc2c1C(=O)NCC(C)(C)N1CCOCC1 [Cpd 068, 2-methyl-N-[2-methyl-2-(morpholin-4-yl)propyl]-5-{[2-(trifluoromethyl)pyridin-3-yl]methoxy}-2H-indazole-3-carboxamide]
> 20	Cn1nccc1COc1ccc2nn(C)c(C(=O)NCC3CCC(=O)N3)c2c1 (centres unmarked) [Cpd 069, 2-methyl-5-[(1-methyl-1H-pyrazol-5-yl)methoxy]-N-[(5-oxopyrrolidin-2-yl)methyl]-2H-indazole-3-carboxamide]
< 1	Cc1ncsc1COc1ccc2nn(C)c(C(=O)NC3(C(N)=O)CCC3)c2c1 [Cpd 070, N-(1-carbamoylcyclobutyl)-2-methyl-5-[(4-methyl-1,3-thiazol-5-yl)methoxy]-2H-indazole-3-carboxamide]
1 to 20	CN1CCC(NC(=O)c2c3cc(OCc4ccnn4C)ccc3nn2C)C1 (centres unmarked) [Cpd 071, 2-methyl-5-[(1-methyl-1H-pyrazol-5-yl)methoxy]-N-(1-methylpyrrolidin-3-yl)-2H-indazole-3-carboxamide]
1 to 20	Cc1ncsc1COc1ccc2nn(C)c(C(=O)NCC3(N(C)C)CCC3)c2c1 [Cpd 072, N-{[1-(dimethylamino)cyclobutyl]methyl}-2-methyl-5-[(4-methyl-1,3-thiazol-5-yl)methoxy]-2H-indazole-3-carboxamide]
1 to 20	Cn1nc2ccc(OCc3cccnc3C(F)(F)F)cc2c1C(=O)NCCN1CCOC1=O [Cpd 073, 2-methyl-N-[2-(2-oxo-1,3-oxazolidin-3-yl)ethyl]-5-{[2-(trifluoromethyl)pyridin-3-yl]methoxy}-2H-indazole-3-carboxamide]
1 to 20	Cn1nc2ccc(OCc3ccccc3)cc2c1C(=O)NC1(CO)CCOCC1 [Cpd 074, 5-(benzyloxy)-N-[4-(hydroxymethyl)oxan-4-yl]-2-methyl-2H-indazole-3-carboxamide]
1 to 20	Cc1ncsc1COc1ccc2nn(C)c(C(=O)NC3CCN(C)C3)c2c1 (centres unmarked) [Cpd 075, 2-methyl-5-[(4-methyl-1,3-thiazol-5-yl)methoxy]-N-(1-methylpyrrolidin-3-yl)-2H-indazole-3-carboxamide]
1 to 20	Cn1nc2ccc(OCc3cccnc3C(F)(F)F)cc2c1C(=O)NC(C)(C)CO [Cpd 076, N-(1-hydroxy-2-methylpropan-2-yl)-2-methyl-5-{[2-(trifluoromethyl)pyridin-3-yl]methoxy}-2H-indazole-3-carboxamide]
1 to 20	Cn1nc2ccc(OCc3cccnc3C(F)(F)F)cc2c1C(=O)NC1CCN(CC(F)(F)F)C1 (centres unmarked) [Cpd 077, 2-methyl-N-[1-(2,2,2-trifluoroethyl)pyrrolidin-3-yl]-5-{[2-(trifluoromethyl)pyridin-3-yl]methoxy}-2H-indazole-3-carboxamide]
1 to 20	CN(C)C1(CNC(=O)c2c3cc(OCc4ccccc4)ccc3nn2C)CCC1 [Cpd 078, 5-(benzyloxy)-N-{[1-(dimethylamino)cyclobutyl]methyl}-2-methyl-2H-indazole-3-carboxamide]
> 20	Cn1nccc1COc1ccc2nn(C)c(C(=O)NC3(CCO)CCC3)c2c1 [Cpd 079, N-[1-(2-hydroxyethyl)cyclobutyl]-2-methyl-5-[(1-methyl-1H-pyrazol-5-yl)methoxy]-2H-indazole-3-carboxamide]
1 to 20	CN1CC(NC(=O)c2c3cc(OCc4cccnc4C(F)(F)F)ccc3nn2C)C(F)(F)C1 (centres unmarked) [Cpd 081, N-(4,4-difluoro-1-methylpyrrolidin-3-yl)-2-methyl-5-{[2-(trifluoromethyl)pyridin-3-yl]methoxy}-2H-indazole-3-carboxamide]

IC50 [µM]	SMILES
1 to 20	C[C@H](NC(=O)c1c2cc(OCc3ccccn3)ccc2nn1C)C(N)=O [Cpd 082, (2S)-2-({2-methyl-5-[(pyridin-2-yl)methoxy]-2H-indazol-3-yl}formamido)propanamide]
1 to 20	C[C@@H](NC(=O)c1c2cc(OCc3ccccn3)ccc2nn1C)C(N)=O [Cpd 083, (2R)-2-({2-methyl-5-[(pyridin-2-yl)methoxy]-2H-indazol-3-yl}formamido)propanamide]
1 to 20	CN1CCC(NC(=O)c2c3cc(OCc4ccccn4)ccc3nn2C)CC1 [Cpd 084, 2-methyl-N-(1-methylpiperidin-4-yl)-5-[(pyridin-2-yl)methoxy]-2H-indazole-3-carboxamide]
1 to 20	Cn1nc2ccc(OCc3ccccn3)cc2c1C(=O)NC1(C(N)=O)CCOCC1 [Cpd 085, N-(4-carbamoyloxan-4-yl)-2-methyl-5-[(pyridin-2-yl)methoxy]-2H-indazole-3-carboxamide]
1 to 20	Cn1nc2ccc(OCc3ccccn3)cc2c1C(=O)NC1(CO)CCC1 [Cpd 086, N-[1-(hydroxymethyl)cyclobutyl]-2-methyl-5-[(pyridin-2-yl)methoxy]-2H-indazole-3-carboxamide]
1 to 20	Cn1nc2ccc(OCc3cccnc3C(F)(F)F)cc2c1C(=O)NC1(C(N)=O)COC1 [Cpd 087, N-(3-carbamoyloxetan-3-yl)-2-methyl-5-{[2-(trifluoromethyl)pyridin-3-yl]methoxy}-2H-indazole-3-carboxamide]
> 20	CN1CC(NC(=O)c2c3cc(OCc4ccnn4C)ccc3nn2C)C(F)(F)C1 (centres unmarked) [Cpd 088, N-(4,4-difluoro-1-methylpyrrolidin-3-yl)-2-methyl-5-[(1-methyl-1H-pyrazol-5-yl)methoxy]-2H-indazole-3-carboxamide]
< 1	Cc1ncsc1COc1ccc2nn(C)c(C(=O)NCc3cccc(O)n3)c2c1 [Cpd 089, N-[(6-hydroxypyridin-2-yl)methyl]-2-methyl-5-[(4-methyl-1,3-thiazol-5-yl)methoxy]-2H-indazole-3-carboxamide]
1 to 20	Cn1nc2ccc(OCc3cccnc3C(F)(F)F)cc2c1C(=O)NC1CCN(CCO)C1=O (centres unmarked) [Cpd 090, N-[1-(2-hydroxyethyl)-2-oxopyrrolidin-3-yl]-2-methyl-5-{[2-(trifluoromethyl)pyridin-3-yl]methoxy}-2H-indazole-3-carboxamide]
1 to 20	Cn1nc2ccc(OCc3ccccc3)cc2c1C(=O)NC(CO)C(F)(F)F (centres unmarked) [Cpd 091, 5-(benzyloxy)-2-methyl-N-(1,1,1-trifluoro-3-hydroxypropan-2-yl)-2H-indazole-3-carboxamide]
1 to 20	CN1CCC(NC(=O)c2c3cc(OCc4ccccc4)ccc3nn2C)C1 (centres unmarked) [Cpd 092, 5-(benzyloxy)-2-methyl-N-(1-methylpyrrolidin-3-yl)-2H-indazole-3-carboxamide]
1 to 20	CN1CCC(NC(=O)c2c3cc(OCc4ccccc4F)ccc3nn2C)CC1 [Cpd 093, 5-[(2-fluorophenyl)methoxy]-2-methyl-N-(1-methylpiperidin-4-yl)-2H-indazole-3-carboxamide]
1 to 20	Cn1nc2ccc(OCc3ccccc3F)cc2c1C(=O)NC1(CO)CCC1 [Cpd 094, 5-[(2-fluorophenyl)methoxy]-N-[1-(hydroxymethyl)cyclobutyl]-2-methyl-2H-indazole-3-carboxamide]
1 to 20	Cn1nc2ccc(OCc3ccccc3F)cc2c1C(=O)NC1(CO)CC1 [Cpd 095, 5-[(2-fluorophenyl)methoxy]-N-[1-(hydroxymethyl)cyclopropyl]-2-methyl-2H-indazole-3-carboxamide]
1 to 20	Cn1nc2ccc(OCc3ccccc3F)cc2c1C(=O)NC1(CO)CCOCC1 [Cpd 096, 5-[(2-fluorophenyl)methoxy]-N-[4-(hydroxymethyl)oxan-4-yl]-2-methyl-2H-indazole-3-carboxamide]
< 1	Cn1nc2ccc(OCc3ccccc3F)cc2c1C(=O)NC1(C(N)=O)CCOCC1 [Cpd 097, N-(4-carbamoyloxan-4-yl)-5-[(2-fluorophenyl)methoxy]-2-methyl-2H-indazole-3-carboxamide]
1 to 20	C[C@@H](NC(=O)c1c2cc(OCc3ccccc3F)ccc2nn1C)C(N)=O [Cpd 098, (2R)-2-({5-[(2-fluorophenyl)methoxy]-2-methyl-2H-indazol-3-yl}formamido)propanamide]
< 1	C[C@H](NC(=O)c1c2cc(OCc3ccccc3F)ccc2nn1C)C(N)=O [Cpd 099, (2S)-2-({5-[(2-fluorophenyl)methoxy]-2-methyl-2H-indazol-3-yl}formamido)propanamide]
1 to 20	Cn1nc2ccc(OCc3ccccn3)cc2c1C(=O)NC1(CO)COC1 [Cpd 100, N-[3-(hydroxymethyl)oxetan-3-yl]-2-methyl-5-[(pyridin-2-yl)methoxy]-2H-indazole-3-carboxamide]
